ChEMBL document CHEMBL6092135, “Current development and structure-activity relationship study of berberine derivatives” (Bioorg Med Chem, 2024)

Tests used:
Plasmodium falciparum = experiment: Antiplasmodial activity against Plasmodium falciparum 3D7 assessed as inhibition of parasite growth measured for 42 hrs by SYBR Green staining based fluorescence analysis; type: functional, organism-based; conditions: 3D7, 42 h
DNA topoisomerase 1 = DNA topoisomerase 1 (Homo sapiens, UniProt P11387); experiment: Inhibition of Topoisomerase 1 (unknown origin)
Chain of DNA topoisomerase 1 (P11387 whole entry): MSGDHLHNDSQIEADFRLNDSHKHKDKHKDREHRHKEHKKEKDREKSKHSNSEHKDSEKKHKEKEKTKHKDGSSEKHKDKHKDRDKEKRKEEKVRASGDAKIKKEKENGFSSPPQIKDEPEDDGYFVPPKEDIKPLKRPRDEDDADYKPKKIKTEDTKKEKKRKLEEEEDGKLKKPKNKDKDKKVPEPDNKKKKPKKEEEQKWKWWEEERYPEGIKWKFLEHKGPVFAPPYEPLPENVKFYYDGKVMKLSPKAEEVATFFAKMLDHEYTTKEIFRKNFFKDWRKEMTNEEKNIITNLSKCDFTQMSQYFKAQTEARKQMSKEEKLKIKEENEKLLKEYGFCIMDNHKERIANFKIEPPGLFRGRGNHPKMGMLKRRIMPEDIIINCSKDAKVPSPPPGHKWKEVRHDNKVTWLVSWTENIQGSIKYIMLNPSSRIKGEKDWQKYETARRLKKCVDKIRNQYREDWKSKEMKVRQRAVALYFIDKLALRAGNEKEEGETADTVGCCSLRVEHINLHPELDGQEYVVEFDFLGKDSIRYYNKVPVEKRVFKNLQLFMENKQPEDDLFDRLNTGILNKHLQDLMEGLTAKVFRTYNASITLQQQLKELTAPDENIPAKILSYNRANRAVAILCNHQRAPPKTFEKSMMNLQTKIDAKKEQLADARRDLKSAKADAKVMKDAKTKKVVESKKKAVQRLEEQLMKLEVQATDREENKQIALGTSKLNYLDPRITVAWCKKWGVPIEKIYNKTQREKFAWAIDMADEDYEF

[1] = Antioxidant activity assessed as DPPH radical scavenging activity measured for 30 mins by spectrophotometric analysis; type: functional
HeLa [2] = experiment: Cytotoxicity against human HeLa cells assessed as reduction in cell viability measured after 48 hrs by SRB assay; type: functional, cell-based
Ca-Ski = experiment: Cytotoxicity against human Ca-Ski cells assessed as reduction in cell viability measured after 48 hrs by SRB assay; type: functional, cell-based
HeLa [3] = experiment: Anticancer activity against human HeLa cells; type: functional, cell-based
A549 [4] = experiment: Anticancer activity against human A549 cells; type: functional, cell-based
Candida albicans = experiment: Antifungal activity against Candida albicans assessed as reduction in fungal growth incubated for 12 hrs by microdilution method; type: functional
Staphylococcus aureus [5] = experiment: Antibacterial activity against Staphylococcus aureus ATCC 25923 assessed as reduction in microbial growth measured after 24 hrs by spectrophotometric method; type: functional
A549 [6] = experiment: Antiproliferative activity against human A549 cells assessed as reduction in cell viability incubated for 24 hrs by CCK-8 assay; type: functional, cell-based; conditions: A549, 24 h
[7] = system: Lewis lung carcinoma cell line; experiment: Cytotoxicity against mouse Lewis lung carcinoma cell line; type: functional, cell-based
CEM-VCR = experiment: Antiproliferative activity against human CEM-VCR cells assessed as reduction in cell growth; type: functional, cell-based
SMMC-7721 = experiment: Antiproliferative activity against human SMMC-7721 cells assessed as reduction in cell growth; type: functional, cell-based
[8] = Antiproliferative activity against human QGY-7701 cells assessed as reduction in cell growth; type: functional, cell-based; conditions: QGY7701
HepG2 = experiment: Antiproliferative activity against human HepG2 cells assessed as reduction in cell growth; type: functional, cell-based
Cryptococcus neoformans = experiment: Antifungal activity against Cryptococcus neoformans assessed as fungal growth inhibition by CLSI based method; type: functional
Aspergillus niger = experiment: Antifungal activity against Aspergillus niger assessed as inhibition of fungal growth incubated for 48 hrs by CLSI protocol based analysis; type: functional
Bacillus cereus = experiment: Antibacterial activity against Bacillus cereus ATCC 27348 assessed as inhibition of bacterial growth incubated for 18 hrs by microdilution method; type: functional
Enterococcus faecium = experiment: Antibacterial activity against Enterococcus faecium ATCC 19434 assessed as reduction in microbial growth measured after 24 hrs by two-fold serial dilution method; type: functional
Bacillus anthracis = experiment: Antibacterial activity against Bacillus anthracis; type: functional
Staphylococcus aureus [9] = experiment: Antibacterial activity against Staphylococcus aureus ATCC 25923 assessed as reduction in bacterial growth incubated for 24 hrs by serial dilution method; type: functional
Enterococcus faecalis = experiment: Antibacterial activity against Enterococcus faecalis ATCC 29212 assessed as reduction in microbial growth after 16 hrs by broth microdilution method; type: functional
[10] = system: Mycobacterium tuberculosis; experiment: Antimycobacterial activity against Mycobacterium tuberculosis H37Rv assessed as reduction in bacterial growth incubated for 7 days by resazurin based assay; type: functional; conditions: 168 h, time 7 day

COc1ccc2cc3[n+](cc2c1OCc1cn(-c2ccc(S(=O)(=O)Nc4ccc(Cl)cc4)cc2)nn1)CCc1cc2c(cc1-3)OCO2.[Cl-]
IC50 (Plasmodium falciparum): 0.2 µg/mL

N=C(N)c1ccc(-c2ccc(-c3ccc(C(=N)N)cc3)o2)cc1 [FURAMIDINE]
IC50 (DNA topoisomerase 1): 1.2 µM

COc1cc(CN2CCN(c3ccc(Cl)c(Cl)c3)CC2)c2cc3[n+](cc2c1O)CCc1cc2c(cc1-3)OCO2
IC50 [1]: 19.8 µM | IC50 (HeLa [2]): 7.33 µM | IC50 (Ca-Ski): 5.75 µM

COc1ccc(N2CCN(Cc3cc(OC)c(O)c4c[n+]5c(cc34)-c3cc4c(cc3CC5)OCO4)CC2)c(OC)c1
IC50 [1]: 19.8 µM | IC50 (HeLa [2]): 7.33 µM | IC50 (Ca-Ski): 5.75 µM

COc1ccc2cc3[n+](cc2c1OCCn1nc(C)c(Br)c1C)CCc1cc2c(cc1-3)OCO2
IC50 (HeLa [3]): 8.99 µM | IC50 (A549 [4]): 8.99 µM

COc1ccc2c(Cc3ccc(C(C)C)cc3)c3[n+](cc2c1O)CCc1cc2c(cc1-3)OCO2.[Cl-]
MIC (Candida albicans): 1 µg/mL

COc1ccc2c(c1OS(=O)(=O)c1c(F)c(F)cc(F)c1F)CN1CCc3cc4c(cc3C1C2)OCO4 (stereo not drawn)
IC50 (DNA topoisomerase 1): 1.05 µM

COc1cc(CN2CCN(c3cccc(C)c3C)CC2)c2cc3[n+](cc2c1O)CCc1cc2c(cc1-3)OCO2
IC50 [1]: 19.8 µM | IC50 (HeLa [2]): 7.33 µM | IC50 (Ca-Ski): 5.75 µM

CCCOc1c(OC)cc(/C=C2\SC(=O)NC2=O)c2c1CN1CCc3cc4c(cc3C1C2)OCO4 (stereo not drawn)
MIC (Staphylococcus aureus [5]): 0.008 µg/mL

COc1ccc2cc3[n+](cc2c1OCCn1nc(C)cc1C)CCc1cc2c(cc1-3)OCO2
IC50 (HeLa [3]): 8.99 µM | IC50 (A549 [4]): 8.99 µM

CCCCCCN(CCCCCC)c1cc(OC)c(O)c2c[n+]3c(cc12)-c1cc2c(cc1CC3)OCO2
IC50 (A549 [6]): 0.29 µM

COc1ccc2cc3[n+](cc2c1OCCn1nc(C)c(Cl)c1C)CCc1cc2c(cc1-3)OCO2
IC50 (HeLa [3]): 8.99 µM | IC50 (A549 [4]): 8.99 µM

CCCCCCCCc1c2[n+](cc3c(OC)c(OC)ccc13)CCc1cc3c(cc1-2)OCO3
IC50 [7]: 0.02 µM | IC50 (CEM-VCR): 0.02 µM | IC50 (SMMC-7721): 0.02 µM | IC50 [8]: 0.02 µM | IC50 (HepG2): 0.02 µM

COc1cc(CN2CCN(c3ccc(C)cc3C)CC2)c2cc3[n+](cc2c1O)CCc1cc2c(cc1-3)OCO2
IC50 [1]: 19.8 µM | IC50 (HeLa [2]): 7.33 µM | IC50 (Ca-Ski): 5.75 µM

COc1ccc2cc3[n+](cc2c1OCc1cn(-c2ccc(S(=O)(=O)Nc4ccc(F)cc4)cc2)nn1)CCc1cc2c(cc1-3)OCO2.[Cl-]
IC50 (Plasmodium falciparum): 0.2 µg/mL

COc1ccc2cc3[n+](cc2c1OCc1cn(-c2ccc(S(N)(=O)=O)cc2)nn1)CCc1cc2c(cc1-3)OCO2.[Cl-]
IC50 (Plasmodium falciparum): 0.2 µg/mL

CCCCOc1c(OC)ccc2c(Cc3ccc(C(C)C)cc3)c3[n+](cc12)CCc1cc2c(cc1-3)OCO2.[Cl-]
MIC (Cryptococcus neoformans): 0.25 µg/mL | MIC (Aspergillus niger): 0.25 µg/mL

COc1ccc2cc3[n+](cc2c1OC)CCc1cc2c(cc1-3)OCO2 [BERBERINE]
IC50 [1]: 89.2 µM | IC50 (HeLa [2]): 13.4 µM | IC50 (Ca-Ski): 15.2 µM | MIC (Staphylococcus aureus [5]): 0.698 µg/mL

Br.COc1ccc2c(Cc3ccccc3-c3cc4cc([N+](=O)[O-])ccc4[nH]3)c3[n+](cc2c1OC)CCc1cc2c(cc1-3)OCO2
MIC (Bacillus cereus): 3.12 µg/mL | MIC (Enterococcus faecium): 3.12 µg/mL | MIC (Bacillus anthracis): 3.12 µg/mL | MIC (Staphylococcus aureus [9]): 3.12 µg/mL | MIC (Enterococcus faecalis): 3.12 µg/mL

CCCCCCC1c2cc(OC)c(OC)cc2C=C2c3cc4c(cc3CCN21)OCO4.Cl (stereo not drawn)
MIC [10]: 1 µg/mL
